In brackets after ≈: the same amount, converted by molar mass. Activity calls are given as the source filed them. The rule behind the calls is not given here.
What was measured:
[1] = tested on: Staphylococcus aureus; assay: Antibacterial activity against Staphylococcus aureus after 24 hr by agar streak dilution method; assay type: functional
[2] = tested on: Bacillus subtilis; assay: Antibacterial activity against Bacillus subtilis at 100 ug/disk after 24 hr by paper disk diffusion method; assay type: functional; conditions: read-out: IZ
[3] = tested on: Aspergillus niger; assay: Antifungal activity against Aspergillus niger after 48 hr by agar streak dilution method; assay type: functional
[4] = tested on: Staphylococcus aureus; assay: Antibacterial activity against Staphylococcus aureus at 100 ug/disc after 24 hr by paper disk diffusion method; assay type: functional; conditions: read-out: IZ
[5] = tested on: Aspergillus clavatus; assay: Antifungal activity against Aspergillus clavatus at 100 ug/disc after 48 hr by paper disk diffusion method; assay type: functional; conditions: read-out: IZ
[6] = tested on: Salmonella typhi; assay: Antibacterial activity against Salmonella enterica subsp. enterica serovar Typhi at 100 ug/disk after 24 hr by paper disk diffusion method; assay type: functional; conditions: read-out: IZ
[7] = tested on: Salmonella typhi; assay: Antibacterial activity against Salmonella enterica subsp. enterica serovar Typhi after 24 hr by agar streak dilution method; assay type: functional
[8] = tested on: Pseudomonas aeruginosa; assay: Antibacterial activity against Pseudomonas aeruginosa at 100 ug/disk after 24 hr by paper disk diffusion method; assay type: functional; conditions: read-out: IZ
[9] = tested on: Aspergillus niger; assay: Antifungal activity against Aspergillus niger at 100 ug/disk after 48 hr by paper disk diffusion method; assay type: functional; conditions: read-out: IZ
[10] = tested on: Escherichia coli; assay: Antibacterial activity against Escherichia coli at 100 ug/disk after 24 hr by paper disk diffusion method; assay type: functional; conditions: read-out: IZ
[11] = tested on: Klebsiella pneumoniae; assay: Antibacterial activity against Klebsiella pneumoniae at 100 ug/ml after 24 hr by agar streak dilution method; assay type: functional, organism-based
[12] = tested on: Proteus vulgaris; assay: Antibacterial activity against Proteus vulgaris at 100 ug/ml after 24 hr by agar streak dilution method; assay type: functional, organism-based
[13] = tested on: Bacillus subtilis; assay: Antibacterial activity against Bacillus subtilis after 24 hr by agar streak dilution method; assay type: functional
[14] = tested on: Candida albicans; assay: Antifungal activity against Candida albicans at 100 ug/ml after 48 hr by agar streak dilution method; assay type: functional, organism-based
[15] = tested on: Shigella flexneri; assay: Antibacterial activity against Shigella flexneri at 100 ug/ml after 24 hr by agar streak dilution method; assay type: functional, organism-based
[16] = tested on: Escherichia coli; assay: Antibacterial activity against Escherichia coli after 24 hr by agar streak dilution method; assay type: functional
[17] = tested on: Aspergillus fumigatus; assay: Antifungal activity against Aspergillus fumigatus at 100 ug/ml after 48 hr by agar streak dilution method; assay type: functional, organism-based
[18] = tested on: Pseudomonas aeruginosa; assay: Antibacterial activity against Pseudomonas aeruginosa after 24 hr by agar streak dilution method; assay type: functional
[19] = tested on: Aspergillus clavatus; assay: Antifungal activity against Aspergillus clavatus after 48 hr by agar streak dilution method; assay type: functional
[20] = tested on: Shigella flexneri; assay: Antibacterial activity against Shigella flexneri at 100 ug/disc after 24 hr by paper disk diffusion method; assay type: functional; conditions: read-out: IZ
[21] = tested on: Aspergillus fumigatus; assay: Antifungal activity against Aspergillus fumigatus after 48 hr by agar streak dilution method; assay type: functional
[22] = tested on: Aspergillus fumigatus; assay: Antifungal activity against Aspergillus fumigatus at 100 ug/disc after 48 hr by paper disk diffusion method; assay type: functional; conditions: read-out: IZ
[23] = tested on: Shigella flexneri; assay: Antibacterial activity against Shigella flexneri after 24 hr by agar streak dilution method; assay type: functional
[24] = tested on: Pseudomonas aeruginosa; assay: Antibacterial activity against Pseudomonas aeruginosa at 100 ug/ml after 24 hr by agar streak dilution method; assay type: functional, organism-based
[25] = tested on: Klebsiella pneumoniae; assay: Antibacterial activity against Klebsiella pneumoniae at 100 ug/disk after 24 hr by paper disk diffusion method; assay type: functional; conditions: read-out: IZ
[26] = tested on: Klebsiella pneumoniae; assay: Antibacterial activity against Klebsiella pneumoniae after 24 hr by agar streak dilution method; assay type: functional
[27] = tested on: Salmonella typhi; assay: Antibacterial activity against Salmonella enterica subsp. enterica serovar Typhi at 100 ug/ml after 24 hr by agar streak dilution method; assay type: functional, organism-based
[28] = tested on: Escherichia coli; assay: Antibacterial activity against Escherichia coli at 100 ug/ml after 24 hr by agar streak dilution method; assay type: functional, organism-based

Compound | MIC [1] [µg/mL] | zone of inhibition at 100 µg/disc [2] [mm] | MIC [3] [µg/mL] | zone of inhibition at 100 µg/disc [4] [mm] | zone of inhibition at 100 µg/disc [5] [mm] | zone of inhibition at 100 µg/disc [6] [mm] | MIC [7] [µg/mL] | zone of inhibition at 100 µg/disc [8] [mm] | zone of inhibition at 100 µg/disc [9] [mm] | zone of inhibition at 100 µg/disc [10] [mm] | Activity [12] | MIC [13] [µg/mL] | Activity [14] | MIC [16] [µg/mL] | MIC [18] [µg/mL] | MIC [19] [µg/mL] | zone of inhibition at 100 µg/disc [20] [mm] | MIC [21] [µg/mL] | zone of inhibition at 100 µg/disc [22] [mm] | MIC [23] [µg/mL] | further results
Cc1cc(=O)oc2cc(Oc3nc(Nc4ccc(/N=C/c5ccccc5)cc4)nc(N(C)C)n3)ccc12 | 100 (≈ 203 µM) | 10 | 100 (≈ 203 µM) | 11 | < 10 | < 10 | 100 (≈ 203 µM) | 12 | < 10 | < 10 | inactive | 100 (≈ 203 µM) | inactive | 100 (≈ 203 µM) | 100 (≈ 203 µM) | 100 (≈ 203 µM) |  |  |  |  | Activity [11]: inactive; Activity [15]: inactive; Activity [17]: inactive
Cc1cc(=O)oc2cc(Oc3nc(Nc4ccc(/N=C/c5ccc([N+](=O)[O-])cc5)cc4)nc(N(C)C)n3)ccc12 | 100 (≈ 186 µM) | < 10 | 100 (≈ 186 µM) | < 10 | 13 | 13 | 100 (≈ 186 µM) |  | < 10 | < 10 | inactive | 100 (≈ 186 µM) | inactive | 100 (≈ 186 µM) |  | 100 (≈ 186 µM) | < 10 | 100 (≈ 186 µM) | < 10 | 100 (≈ 186 µM) | Activity [24]: inactive; zone of inhibition at 100 µg/disc [25]: < 10 mm; MIC [26]: 100 µg/mL (≈ 186 µM)
Cc1cc(=O)oc2cc(Oc3nc(Nc4ccc(/N=C/c5ccccc5C(=O)O)cc4)nc(N(C)C)n3)ccc12 | 100 (≈ 186 µM) | 11 | 100 (≈ 186 µM) | 13 | < 10 |  |  | 11 | 10 |  | inactive | 100 (≈ 186 µM) | inactive |  | 100 (≈ 186 µM) | 100 (≈ 186 µM) | 11 | 100 (≈ 186 µM) | < 10 | 100 (≈ 186 µM) | Activity [27]: inactive; Activity [28]: inactive; zone of inhibition at 100 µg/disc [25]: < 10 mm; MIC [26]: 100 µg/mL (≈ 186 µM)

Source: ChEMBL document CHEMBL3046897, “Synthesis of 3-{4-[4-dimethylamino-6-(4-methyl-2-oxo-2H-chromen-7-yloxy)-[1,3,5]triazin-2-ylamino]-phenyl}-2-phenyl-5-(4-pyridin-2-yl-piperazin-1-ylmethyl)-thiazolidin-4-one and their biological evaluation” (2012)
